Blank lines part the entries; values can stand above or below the molecule they belong to.
Experiments:
mGRFT = mGRFT (Griffithsia sp., UniProt P84801, INS16GS); assay: Isothermal titration calorimetry (ITC) binding to mGRFT; conditions: two-site model
[1] = target: monomeric Griffithsin (mGRFT) (Griffithsia sp., UniProt P84801, INS16GS); assay: Biolayer interferometry (BLI) binding to mGRFT; conditions: for Kd: mGRFT as the analyte, 25 °C
Description: (§1) All BLI experiments were performed at 25 °C on an Octet R2 instrument using SA or NiNTA biosensors. Ligand was loaded onto the biosensors followed by a baseline then association and dissociation phase. Biosensors were regenerated and this process was repeated for varying concentrations of analyte. Data was processed in Octet analysis studio 13.0. The samples were double referenced, first to a reference sensor then to a well containing no analyte. The trace responses were aligned to the average of the final 5s of the baseline and inter-step corrected to the dissociation step. A Savitzky-Golay filter was applied to reduce high frequency noise. The association and dissociation phases were fit globally to a 1:1 single exponential binding model. All conditions were run in triplicate.

[2] = test system: mGRFT binding to biotinylated Man-9; assay: BLI competition assay against immobilized Man-9; parameters: species or system Griffithsia; conditions: Man-9 immobilized
Description: To further probe this ultra-high-affinity interaction, we performed a BLI competition assay to determine whether the [2DEG]^2+ complex could outcompete mGRFT’s natural ligand, Man-9. Biotinylated Man-9 was immobilized on the BLI biosensor tip, which was then dipped into solutions containing mGRFT that was pre-incubated with varying concentrations of [2DEG]^2+. […] More broadly, this finding highlights the power of rational synthetic design to generate glycomimetics capable of outperforming their biological counterparts.
as §1

GRFT = target: GRFT; parameters: method as in PMID 17340634; conditions: free mannose; cited from earlier work

monomeric Griffithsin (mGRFT), sequence (P84801 whole entry, stated change not applied): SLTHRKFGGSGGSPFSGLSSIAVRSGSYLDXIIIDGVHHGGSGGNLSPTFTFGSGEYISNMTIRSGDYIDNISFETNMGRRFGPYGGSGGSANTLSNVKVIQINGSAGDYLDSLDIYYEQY
mGRFT, sequence (P84801 whole entry, stated change not applied): as above

stoichiometry of each interaction (mGRFT): one
Molecule: OC[C@H]1O[C@H](OCCOCCOc2ccc(/C=N/CCN(CC/N=C/c3ccc(OCCOCCO[C@H]4O[C@H](CO)[C@@H](O)[C@H](O)[C@@H]4O)cn3)CC/N=C/c3ccc(OCCOCCO[C@H]4O[C@H](CO)[C@@H](O)[C@H](O)[C@@H]4O)cn3)nc2)[C@@H](O)[C@@H](O)[C@@H]1O.[Fe+2] [[1DEG]^2+, [Fe(DEGman)3][SO4]]

Molecule: OC[C@H]1O[C@H](O[C@@H]2[C@@H](OCCOCCOc3ccc(/C=N/CCN(CC/N=C/c4ccc(OCCOCCO[C@H]5O[C@H](CO)[C@@H](O)[C@H](O)[C@@H]5O[C@H]5O[C@H](CO)[C@@H](O)[C@H](O)[C@@H]5O)cn4)CC/N=C/c4ccc(OCCOCCO[C@H]5O[C@H](CO)[C@@H](O)[C@H](O)[C@@H]5O[C@H]5O[C@H](CO)[C@@H](O)[C@H](O)[C@@H]5O)cn4)nc3)O[C@H](CO)[C@@H](O)[C@@H]2O)[C@@H](O)[C@@H](O)[C@@H]1O.[Fe+2] [[2DEG]^2+]
dissociation rate kd ([1]; 1:1 binding model): no measurable dissociation
reduction of BLI response in the association phase ([2]; 0.5 molar equivalents of complex pre-incubated with mGRFT): approximately 50%
reduction of BLI response in the association phase ([2]; two molar equivalents of complex pre-incubated with mGRFT): nearly eliminating the response entirely

Molecule: OC[C@H]1OC(O)[C@@H](O)[C@@H](O)[C@@H]1O (stereo partly shown) [free mannose, mannose]
Kd (GRFT): 102 µM

Molecule: Man-5
Kd ([1]; biotinylated Man-5 as the ligand, kinetic fitting and steady state analysis): 40 ± 10 µM

Molecule: Man-9
Kd ([1]; biotinylated Man-9 as the ligand): 0.067 ± 0.001 µM
